Experimental data published in patent US20070079447A1, “Insect repellent textile” (Beiersdorf AG, priority 2003, published 2007).

system: insects; test: not given; settings: cited from earlier work

Row | Compound | effective against (pests repelled)
1 | COC(=O)c1ccccc1C(=O)OC [Dimethyl phthalate] | mosquitoes (in particular Aedes and Anopheles species)
2 | CCN(CC)C(=O)c1cccc(C)c1 [DEET, N,N-diethyl-3-methylbenzamide] | mosquitoes, horse-flies, sand-flies, ticks, biting flies, mites, fleas and bugs
3 | CCCCN(CCC(=O)OCC)C(C)=O [Repellent 3535, ethyl 3-(N-n-butyl-N-acetylamino)propionate] | mosquitoes (Aedes aegypti, Anopheles albimanus), tsetse flies (Glossinae) and horse-flies (Tabanidae)

same assay, conditions: pests repelled, table of further repellents; cited from earlier work

Row | Compound | Effectiveness (literature and manufacturer details)
4 | CCCCCCCC(=O)N(CC)CC [N,N-Diethyl caprylamide] | cockroaches, mosquitoes, house files, horse-flies, ants, arachnids
5 | CCCCC(CC)CN1C(=O)C2C3C=CC(C3)C2C1=O (stereo not drawn) [N-Octylbicycloheptenedicarboximide] | synergist^2
6 | COC(=O)C1C2C=CC(C2)C1C(=O)OC (stereo not drawn) [Dimethyl carbate] | mosquitoes, in particular of the Aedes species^1
7 | O=CC12CC=CCC1C1CC=CCC1O2 (stereo not drawn) [2,3;4,5-bis(2-Butylene)tetrahydro-2-furaldehyde] | cockroaches and biting insects^1
8 | CCCCOCCOCCOCc1cc2c(cc1CCC)OCO2 [Piperonyl butoxide] | synergist^2
9 | CCCC(O)C(CC)CO (stereo not drawn) [2-Ethylhexane-1,3-diol] | mosquitoes, horse-flies, flies, fleas, mites^1

system: not listed separately; test: Polarity: interfacial tension toward water; assay type: physicochemical; settings: medium-polar lipids;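 further: polarity expressed as oil–water interfacial tension in mN/m, lower values meaning a more polar oil, with medium-polar lipids falling between 20 and 30 mN/m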
Text: For the purposes of the present invention, lipids are regarded as being polar if their interfacial tension toward water is less than 20 mN/m, and as nonpolar if their interfacial tension toward water is more than 30 mN/m. Lipids with an interfacial tension toward water between 20 and 30 mN/m are generally referred to as medium-polar.

Row | Polarity [mN/m] | Compound
10 | 26.2 | CCCCC(CC)C(=O)OCCC(C)CC(C)(C)C (stereo not drawn) [Dermol 98, 2-Ethylhexanoic acid 3,5,5-Trimethyl ester]
11 | 21.9 | CCCCCCCCCCCCCCCCCC(=O)OC(C)C [Isopropyl stearate, Isopropyl Stearate]
12 | 23.1 | CCCCCCCCCCCCCCCC(=O)OCCCCCCCC [Cegesoft C24, Octyl Palmitate]
13 | 20.2 | CCCCCCCC(=O)OCC(COC(=O)CCCCCCC)OC(=O)CCCCCCC [Trivent OCG, Tricaprylin]
14 | 29.7 | CCCCCCCCCC(=O)OCCCC(C)C [Dermol IHD, Isohexyl decanoate]
15 | 29.2 | CCCCCCOCCCCCC [Dihexyl Ether]
16 | 22.1 | CCCCCCCCCCCCCC(=O)OCC(CCCCCCCC)CCCCCCCCCC (stereo not drawn) [M.O.D., Octyldodecyl Myristate]
17 | 29.9 | CC(C)CCCCCCCOC(=O)C(C)(C)C [DUB VCI 10, Isodecyl Neopentanoate]
18 | 29.6 | CCCCCCCC(=O)OCCCCCCCC(C)C [Dermol 108, Isodecyl Octanoate]
19 | 24.5 | Isotridecyl 3,5,5 Trimethylhexanonanoate [Dermol 139]

Row | Compound | Polarity [mN/m]
20 | CCCCCCCCCCC(CO)CCCCCCCC (stereo not drawn) [Eutanol G, Octyldodecanol] | 24.8
21 | CCCCCCC(CCCC)C(=O)O (stereo not drawn) [Isocarb 12, Butyl Octanoic acid] | 22.1
22 | CC(C)CCCCCCCOC(=O)CC(C)CC(C)(C)C (stereo not drawn) [Dermol 109, Isodecyl 3,5,5 Trimethyl Hexanoate] | 29.1

same assay, conditions: nonpolar lipids

Row | Polarity [mN/m] | Compound
23 | 31.6 | CCCCCCCCOC(=O)CCCCCCCCCCCCCCC(C)C [Prisorine 2036, Octyl Isostearate]
24 | 40.5 | CCCCCCCC/C=C\CCCCCCCC(=O)OCCOCCOCC [Softcutol O, Ethoxydiglycol Oleate]
25 | 31.1 | CC(CCOC(=O)CC(C)CC(C)(C)C)CC(C)(C)C (stereo not drawn) [Dermol 99, Trimethylhexyl Isononanoate]
26 | 31.0 | CCCCC(CC)COC(=O)CCCCCC(C)C (stereo not drawn) [Dermol 89, 2-Ethylhexyl Isononanoate]
27 | 43.8 | CCCCCCCCCCCCCC(C)C [Solvent ICH, Isohexadecane]
28 | 41.9 | CCCCCCCCCCCCCCCCCC(C)C [Isoeicosane]
29 | 30.9 | CCCCCCCC(=O)OC(=O)CCCCCCC [Cetiol OE, Dicaprylyl Ether]
30 | 36.2 | Isocetyl Palmitate [Tegosoft HP]
31 | 30.9 | CCCCCCOC(=O)OCCCCCC [Dihexyl carbonate, Dihexyl Carbonate]

Row | Compound | Polarity [mN/m]
32 | Dioctylcyclohexane [Cetiol S] | 39.0
33 | O1[SiH2]O[SiH2]O[SiH2]O[SiH2]O[SiH2]1 (stereo not drawn) [Dow Corning Fluid 245, Cyclopentasiloxane] | 32.3

same assay, conditions: polar lipids

Row | Polarity [mN/m] | Compound
34 | 6.2 | CC(C)CCCCCCCCCCCCCCC(=O)O.CC(O)CO [Emerest 2384, Propylene Glycol Monoisostearate]
35 | 17.8 | CCCCCCCCCCCCCCCCCCOC(=O)CCCCCC [Tegosoft SH, Stearyl Heptanoate]
36 | 14.3 | CCCCOC(=O)CCCCC(=O)OCCCC [Cetiol B, Dibutyl Adipate]
37 | 2.4 | Triisostearin [Prisorine 2041 GTIS]

Row | Compound | Polarity [mN/m]
38 | PEG 2 Diethylene hexanoate [Dermol 488] | 10.1

same assay, conditions: silicone oils

Row | Compound | Polarity [mN/m]
39 | O1[SiH2]O[SiH2]O[SiH2]O[SiH2]O[SiH2]1 (stereo not drawn) [Dow Corning Fluid 245, Cyclopentasiloxane] | 32.3
